One may read the EC50 as the concentration at which the effect is half-maximal. High values mean lower potency in that assay, low ones higher potency in that assay.

Each structure is given as a SMILES string. Structures can show the parent of a compound that is named as a salt. Where two headings read alike, the source gives them in different places.

Among the data in patent US11478451B1, “Macrocyclic chlorine substituted indole derivatives” (Bayer Aktiengesellschaft, priority 2017, dated 2022) are IC50, EC50 and ring closure, yield of all isomers values, retold here.

One series relates to HMC-1-8 cells. Description: Antiproliferation assay (CellTiter-Glo, 72 h), HMC-1-8. It counts as cell-based. As to conditions: 72 h, IC50, median; HMC-1-8, 72 h; read-out: Antiproli HMC-1-8 [M] median. A digest of the protocol:
(§1)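 Cells were incubated with compounds for 72 h at 37°C. Viability was then read by CellTiter-Glo luminescence, and a parallel day 0 plate read the same way gave the time-zero signal.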
(In general: Cellular ATP, detected with luciferase, serves as a proxy for viable cell number.)

The subject of another series is DMS-114 cells. Put plainly: Antiproliferation assay (CellTiter-Glo, 72 h), DMS-114. It is filed as cell-based. As to conditions: Homo sapiens, DMS-114, 72 h; read-out: Antiproli DMS-114 [M] median. As to the method:
(§2) Assessment of the Anti-Proliferative Effect of Compounds in Different Cell Lines
(§3) The impact of compounds on the proliferation of different cell lines was assessed using the CellTiter-Glo® Luminescent Cell Viability reagent from Promega (G7573).
(§4) In parallel, cells were plated in a reference (day 0) plate for time zero determination.
(§5) Rim wells were excluded. The cells were incubated for 72 h hours in a humidified incubator at 37° C. The day 0 plate was measured by adding 30 μL/well of CTG solution (CellTiter-Glo® Luminescent Cell Viability reagent, Promega G7573) to time zero wells in the reference plate followed by a 10 minutes incubation and luminescence reading at 0.1 ms. using the PHERAstar FS microplate reader (BMG Labtech).
(§6) After 72 h incubation, the treated plates were measured in the same way as the day 0 plate mentioned above.

A further series concerns SNU-389 cells. Description: Antiproliferation assay (CellTiter-Glo, 72 h), SNU-389. As to conditions: 72 h; read-out: Antiproli SNU-389 [M] median. It counts as cell-based. As to the method:
as §2, §3, §4, §5, §6

Series [1] relates to SUDHL10 cells. Put plainly: Induction of caspase-3/7 activity (Caspase-Glo 3/7), SUDHL10. It is filed as cell-based. As to conditions: Homo sapiens, SU-DHL10, 3 h, EC50, median; SUDHL10, 3 h treatment. A digest of the protocol: (§7)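 DLBCL lines treated with compounds for 3 h at 37 °C in a humidified incubator; caspase-3/7 activity read with Caspase-Glo 3/7 luminescent reagent. Medium-only background subtracted from all values.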

The test system of another series is AMO-1 cells. Put plainly: Antiproliferation assay (CellTiter-Glo, 72 h), AMO-1. It is filed as cell-based. Particulars: IC50, median, AMO-1, 72 h, read-out: Antiproli AMO-1 [M] median. The method, boiled down: as §1
Series [2] deals with SUDHL5 cells. Description: Induction of cytotoxicity (CellTiter-Glo, 5 h), SUDHL5. Particulars: SUDHL5, 5 h.
The test system of series [3] is SUDHL10 cells. Description: Induction of cytotoxicity (CellTiter-Glo, 5 h), SUDHL10. As to conditions: SUDHL10, 5 h.
Method: Therefore, cytotoxicity assays were run in parallel in SUDHL5 and SUDHL10 cells.
The different cell lines were plated in culture medium (RPMI 1640 [GIBCO #22400-089] supplemented with 10% Fetal Bovine Serum) at a density of 3,300 cells in 30 μL/well in a sterile, solid black, flat bottom, polystyrene, TC-treated 384-well microplate (Corning #3571) using Multidrop Combi Reagent Dispenser. As a control, medium without cells was also added to the plate. Cells were incubated in a humidified incubator at 37° C. overnight. […] Rim wells were excluded. The cells were incubated for 5 h hours in a humidified incubator at 37° C. After this incubation, 30 μL of CellTiter-Glo® Luminescent Cell Viability reagent (Promega, G7573) was added to each well using the Multidrop Combi Reagent Dispenser, followed by 15 min incubation on a shaker at room temperature. Finally, luminescence was read at 0.1 ms, with a gain of 3000 using the PHERAstar FS microplate reader (BMG Labtech).
In series [4] the test system is SUDHL5 cells. Put plainly: Induction of caspase-3/7 activity (Caspase-Glo 3/7), SUDHL5. It counts as cell-based. Particulars: EC50, median, SUDHL5, 3 h treatment. A digest of the protocol: as §7
For series [5], the system named is SUDHL5 cells. Description: Antiproliferation assay (CellTiter-Glo, 72 h), SUDHL5. Particulars: IC50, median, SUDHL5, 72 h, read-out: Antiproli SUDHL5 [M] (median). It is filed as cell-based. A digest of the protocol:
as §1

The conditions of series [6]: NaH, DMF, 40.0 °C, 3 steps.
Setting [7] is: read-out: Cytotox SUDHL5 [M] (median), IC50, median.
[8] abbreviates: Homo sapiens, SU-DHL-5, 5 h, read-out: Cytotox SUDHL5 [M] (median), IC50, median.
Where [9] appears, read: Homo sapiens, SU-DHL10, 5 h, read-out: Cytotox SUDHL10 [M] (median), IC50, median.

On to `CCc1c2c(nn1C)CN(CCOC)CCCCn1c(C(=O)O)c(CCCOc3cccc4cc(F)ccc34)c3ccc(Cl)c-2c31` (single isomer, unassigned; enantiomer 2) [Example 133, 4-chloro-3-ethyl-7-{3-[(6-fluoronaphthalen-1-yl)oxy]propyl}-14-(2-methoxyethyl)-2-methyl-10,11,12,13,14,15-hexahydro-2H-pyrazolo[3′,4′:8,9][1,6]diazacycloundecino[10,11,1-hi]indole-8-carboxylic acid N-ethylethanamine salt (Enantiomer 2)], for which the IC50 in the series on HMC-1-8 cells is 1e-06 M; in the series on DMS-114 cells, 3.85e-07 M; with SNU-389 cells, 4.97e-07 M.

Take `CCc1c2c(nn1C)CN(C)CCCCn1c(C(=O)O)c(CCCOc3cccc4ccccc34)c3ccc(Cl)c-2c31` (single isomer, unassigned; enantiomer 1) [Example 23, 4-chloro-3-ethyl-2,14-dimethyl-7-[3-(naphthalen-1-yloxy)propyl]-10,11,12,13,14,15-hexahydro-2H-pyrazolo[3′,4′:8,9][1,6]diazacycloundecino[10,11,1-hi]indole-8-carboxylic acid (Enantiomer 1)]: the IC50 with HMC-1-8 cells was determined as 5.2e-06 M; with DMS-114 cells, 2.06e-06 M; in the series on SNU-389 cells it was 1.7e-06 M; with AMO-1 cells (Homo sapiens, AMO1, 72 h), 6.1e-07 M. This molecule showed an EC50 in the series with SUDHL10 cells [1] of 180 nM.

As to `CCc1c2c(nn1C)CN(C)CCCCn1c(C(=O)O)c(CCCOc3cccc4cc(F)ccc34)c3ccc(Cl)c-2c31` (single isomer, unassigned; enantiomer 1) [Example 6, 4-chloro-3-ethyl-7-{3-[(6-fluoronaphthalen-1-yl)oxy]propyl}-2,14-dimethyl-10,11,12,13,14,15-hexahydro-2H-pyrazolo[3′,4′:8,9][1,6]diazacycloundecino[10,11,1-hi]indole-8-carboxylic acid (Enantiomer 1)], the IC50 in the series with HMC-1-8 cells was 3.4e-06 M; in the series on SUDHL5 cells [2] (setting [7]), 1.5e-07 M; with DMS-114 cells, 4.97e-07 M; in the series on SUDHL10 cells [3] (read-out: Cytotox SUDHL10 [M] (median), IC50, median), 3.6e-07 M; in the series with SNU-389 cells, 6.96e-07 M; with AMO-1 cells, 2.4e-07 M. The EC50 in the series with SUDHL10 cells [1] amounted to 220 nM.

On to `CCc1c2c(nn1C)CN(CCC1CCOCC1)CCCCn1c(C(=O)O)c(CCCOc3cccc4cc(F)ccc34)c3ccc(Cl)c-2c31` (single isomer, unassigned; enantiomer 1) [Example 136, 4-chloro-3-ethyl-7-{3-[(6-fluoronaphthalen-1-yl)oxy]propyl}-2-methyl-14-[2-(oxan-4-yl)ethyl]-10,11,12,13,14,15-hexahydro-2H-pyrazolo[3′,4′:8,9][1,6]diazacycloundecino[10,11,1-hi]indole-8-carboxylic acid N-ethylethanamine salt (Enantiomer 1)], for which the IC50 stood at 7.3e-07 M in the series with HMC-1-8 cells, 2.35e-07 M with DMS-114 cells and 3.85e-07 M in the series on SNU-389 cells.

As for `CCc1nn(C)c2c1-c1c(Cl)ccc3c(CCCOc4cccc5cc(F)ccc45)c(C(=O)O)n(c13)CCCCN(C)C2` (racemic) [Example 39, (rac)-4-chloro-3-ethyl-7-{3-[(6-fluoronaphthalen-1-yl)oxy]propyl}-1,14-dimethyl-10,11,12,13,14,15-hexahydro-1H-pyrazolo[3′,4′:8,9][1,6]diazacycloundecino[10,11,1-hi]indole-8-carboxylic acid], the IC50 stood at 3.3e-06 M in the series on HMC-1-8 cells; 1.5e-07 M in the series on SUDHL5 cells [2] (setting [8]); 6.38e-07 M in the series with DMS-114 cells; 2.4e-07 M with SUDHL10 cells [3] (setting [9]); 1.09e-06 M in the series with SNU-389 cells; 2.4e-07 M with AMO-1 cells (Homo sapiens, AMO1, 72 h). In addition, in the series on SUDHL10 cells [1], the EC50 turned out to be 150 nM.

Regarding `CCc1c2c(nn1C)CCCOCCn1c(C(=O)O)c(CCCOc3cccc4cc(F)ccc34)c3ccc(Cl)c-2c31` (racemic) [Example 124, (rac)-4-chloro-3-ethyl-7-{3-[(6-fluoro-1-naphthyl)oxy]propyl}-2-methyl-2,10,11,13,14,15-hexahydropyrazolo[4′,3′:7,8][1,4]oxazacycloundecino[6,5,4-hi]indole-8-carboxylic acid], the IC50 in the series on HMC-1-8 cells worked out at 7e-06 M; in the series with SUDHL5 cells [2] (setting [8]), 1.1e-06 M; in the series on SUDHL5 cells [5] (Homo sapiens, SU-DHL-5, 72 h) it was 4.4e-06 M; with SUDHL10 cells [3] (setting [9]), 2.4e-06 M; in the series with AMO-1 cells (Homo sapiens, AMO1, 72 h) it was 8.3e-07 M. Besides, the 50% effective concentration (EC50) in the series on SUDHL5 cells [4] (Homo sapiens, SU-DHL-5, 3 h) was determined as 950 nM; in the series on SUDHL10 cells [1], 1800 nM. The molecule further returned a ring closure, yield of all isomers in series [6] (from CCOC(=O)c1[nH]c2c(-c3c(CCCOCCO)nn(C)c3CC)c(Cl)ccc2c1CCCOc1cccc2cc(F)ccc12, amine bond, 47.5 mM) of 63.1%.

For `Cc1c2c(nn1C)CN(CC(F)(F)F)CCCCn1c(C(=O)O)c(CCCOc3cccc4cc(F)ccc34)c3ccc(Cl)c-2c31` (single isomer, unassigned; enantiomer 1) [Example 59, 4-chloro-7-{3-[(6-fluoronaphthalen-1-yl)oxy]propyl}-2,3-dimethyl-14-(2,2,2-trifluoroethyl)-10,11,12,13,14,15-hexahydro-2H-pyrazolo[3′,4′:8,9][1,6]diazacycloundecino[10,11,1-hi]indole-8-carboxylic acid—Enantiomer 1], the IC50 stood at 8e-07 M with SUDHL5 cells [2] (setting [7]); 3.21e-06 M in the series with DMS-114 cells; 1.1e-06 M in the series with SUDHL5 cells [5]; 1.2e-06 M in the series on SUDHL10 cells [3] (setting [9]); 3.79e-06 M in the series on SNU-389 cells; 1.5e-06 M in the series on AMO-1 cells (Homo sapiens, AMO1, 72 h). The EC50 in the series on SUDHL5 cells [4] amounted to 350 nM; with SUDHL10 cells [1] it was 1000 nM.

`CCc1nn(C)c2c1-c1c(Cl)ccc3c(CCCOc4cccc5cc(F)ccc45)c(C(=O)O)n(c13)CCCCN(C)C2` (single isomer, unassigned; enantiomer 2) [Example 41, 4-chloro-3-ethyl-7-{3-[(6-fluoronaphthalen-1-yl)oxy]propyl}-1,14-dimethyl-10,11,12,13,14,15-hexahydro-1H-pyrazolo[3′,4′:8,9][1,6]diazacycloundecino[10,11,1-hi]indole-8-carboxylic acid (Enantiomer 2)]: the IC50 turned out to be 7e-07 M in the series on HMC-1-8 cells; 3.65e-07 M in the series on DMS-114 cells; 1.5e-07 M in the series on SUDHL5 cells [5]; 5.56e-07 M with SNU-389 cells; 5.4e-07 M in the series with AMO-1 cells.

In the case of `CCc1c2c(nn1C)COCCCCn1c(C(=O)O)c(CCCOc3cccc4cc(F)ccc34)c3ccc(Cl)c-2c31` (single isomer, unassigned; enantiomer 1) [Example 37, (+)-4-chloro-3-ethyl-7-{3-[(6-fluoronaphthalen-1-yl)oxy]propyl}-2-methyl-2,10,11,12,13,15-hexahydropyrazolo[4′,3′:9,10][1,6]oxazacycloundecino[8,7,6-hi]indole-8-carboxylic acid-N-ethylethanamine salt (Enantiomer 1)], the IC50 with HMC-1-8 cells was found to be 1.6e-06 M; with DMS-114 cells, 1.12e-06 M; in the series with SUDHL10 cells [3] (setting [9]) it was 4.3e-07 M; with SNU-389 cells, 1.05e-06 M; in the series on AMO-1 cells (Homo sapiens, AMO1, 72 h), 3.6e-07 M. The molecule also returned an EC50 in the series with SUDHL10 cells [1] of 330 nM.

Take `CCc1nn(C)c2c1-c1c(Cl)ccc3c(CCCOc4cccc5cc(F)ccc45)c(C(=O)O)n(c13)CCOCCC2` [Example 125, (rac)-4-chloro-3-ethyl-7-{3-[(6-fluoro-1-naphthyl)oxy]propyl}-1-methyl-1,10,11,13,14,15-hexahydropyrazolo[4′,3′:7,8][1,4]oxazacycloundecino[6,5,4-hi]indole-8-carboxylic acid]: the IC50 with SUDHL5 cells [2] (setting [8]) is 1.3e-06 M; in the series with SUDHL5 cells [5] (Homo sapiens, SU-DHL-5, 72 h), 7.9e-06 M; in the series on SUDHL10 cells [3] (setting [9]) it was 5.4e-06 M; with AMO-1 cells (Homo sapiens, AMO1, 72 h), 1.9e-06 M. Also, the EC50 with SUDHL5 cells [4] (Homo sapiens, SU-DHL-5, 3 h) amounted to 1400 nM; in the series with SUDHL10 cells [1], 4600 nM. Moreover, in series [6] (from CCOC(=O)c1[nH]c2c(-c3c(CC)nn(C)c3CCCOCCO)c(Cl)ccc2c1CCCOc1cccc2cc(F)ccc12, amine bond, 55.64 mM), the ring closure, yield of all isomers was found to be 76.1%.
